The source of these data is patent US20240140953A1, “INHIBITORS OF MENIN-MLL INTERACTION” (BIOMEA FUSION, INC., priority 2018, published 2024).

In test [1] the test system is MOLM-13 (MLL-AF9). Kind of test: LTP assay, CellTiterGlo, T4-T14 (Example 103), MOLM-13. Format: cell-based, human. As to conditions: for inhibition of cell viability (in words): MOLM-13, LTP assay. As to the method: (§1) The day of the experiment (T0) all the cell line suspensions were counted by Cell Viability Analyser, Vi-CELL and properly diluted with fresh medium to obtain the cell density reported in the Test System paragraph.
(§2) Cells were tested after 4 passages after thawing.
(§3) 200 μL/well and 150 μL/well of cell suspension were added into the 0.4 μL/well and 0.3 μL/well compound plates, respectively. • Cell plate containing 200 μL/well suspension was incubated at 37° C. in a humidified incubator with 5% CO2. • From each well of the 150 μL/well cell assay plate, 100 μL were harvested and transferred into a 96-well Optiplate (Perkin Elmer, Cat. n. 6005290) and cell viability was measured as described in 4.3 paragraphs (T0).
(§4) After four days in culture (T4) 150 μL/well of fresh medium were added into a new 0.3 μL/well copy compound plate. • From each well of the 200 μL/well cell assay plate: • 100 μL were sampled for the cell viability measurement as described in 4.3 paragraphs (T4). • 50 μL were harvested and added to the 150 μL/well compound plate prepared as described in the first point to dilute 1:4 the cell suspension. • The cell assay plate diluted and containing 200 μL/well suspension were incubated at 37° C. in a humidified incubator with 5% Co2.
(§5) At T7-T11-T14 it was proceeded as described in T4, with the exception that no further cell dilution was carried out at T14.
(§6) Plates containing the samples to be tested were equilibrated at room temperature for approximately 30 min and then 30 μL/well of the Promega CellTiterGlo® reagent were added.
(§7) Contents will be mixed for 5 min on an orbital shaker to induce cell lysis and then incubated at room temperature for an additional 10 min to stabilize the luminescent signal.
(§8) Luminescence was read by using VictorV (Perkin Elmer) multilabel plate reader using the standard protocol for luminescence in 96 well plate.
(§9) Data were expressed as % of inhibition compared to the 0.2% DMSO negative control, and was calculated as follows: […]
(§10) CRCs were analysed by GraphPad and IC50 values were calculated by non-linear regression using 4 parameter-logistic equation. IC50 (μM) values were reported in the final data table.
(§11) The curve fittings were performed leaving free all the parameters. Any constrain were reported in the results table.
(In general: Cellular ATP, detected with luciferase, serves as a proxy for viable cell number.)

In test [2] the test system is HL-60. Kind of test: LTP assay, CellTiterGlo, T4-T14 (Example 103), HL-60. As to conditions: for inhibition of cell viability (in words): HL-60, LTP assay. Format: cell-based. As to the method: as §1, §2, §3, §4, §5, §6, §7, §8, §9, §10, §11
Test [3] concerns the target menin (Homo sapiens (Human), UniProt O00255). Description: Kd (Table 3A). Format: binding.
Test [4] relates to MOLM-13. Description: Long term proliferation, InCell (Table 3C), MOLM-13. The following applies: Homo sapiens, MOLM-13, InCell. Format: cell-based. As to the method: (§12) Compounds of invention are tested in the 5 suspension lines by 14-day long-term proliferation assay.
(§13) The compound is tested in 10-pt dose titration (client will determine the starting concentration and the dilution scheme) and the final DMSO concentration is kept at 0.2%.
(§14) Vehicle and media control are also included. All treatments are done in triplicate.
(§15) • 1) On Day 0, in a flat bottom 96-well plate, add 100 μL of cells per well at the densities optimized. • 2) Prepare compounds in DMSO at 500× final concentration. Dilute the compounds with DMSO at the dilution. • 3) Dilute the compounds in media at 3×final concentration. Add 50 μL of compound or DMSO at 3× final concentration to each well. Final volume in each well is 150 μL, and final concentration of DMSO is 0.2%. Also include 3 untreated control wells, by adding 50 μL of media alone. 4) Incubate plates for 96 hours. • 5) Count the cells using the Acumen, with capabilities for 96-well plates. Pipette cells up and down to mix in each well, and add desired volume of cells to a new flat bottom poly-D-lysine 96-well plate. Add Calcein AM at 1 μM final concentration. Let cells sit at RT for 10 mins followed by a quick spin to get cells settled on the bottom of the wells. Incubate the plate for additional 40 mins in the incubator. Take out the plate and read by Acumen. Calculate the cell numbers taken into account the dilution factors. • 6) Split the master plate. To do this take the total viable cell count calculated using step 5). Take the average of the replicates for each dose in order to be used in splitting the cells. • 7) Use a 96 well V-bottom plate to spin down the cells to remove old media and compound to split the cells. Based on the split ratio place the proper amount of media and cells into the V-bottom plate, and spin the plate at 1100 rpm for 5 minutes. • 8) Following the spin remove the media, careful not to disturb the cellpellet. • 9) Re-suspend pellet in 100 μL fresh media, and add to a new 96-well flat bottom plate. • 10) Add fresh compound, in the same manner as Step 3). • 11) Incubate plates for 72 hours. Repeat steps 5)-10) on Day 7. • 12) Incubate plates for 96 hours. Repeat Step 5)-10) on Day 11. • 13) Incubate 72 hours and repeat step 5) to take a final count. • 14) Data Analysis
(§16) To calculate growth for days 4, 7, 11, and 14: • Calculate the split factor for day 4 to 7, day 7 to 11, and day 11-14.

Test [5] relates to KG-1. Description: Long term proliferation, Cell Titer-Glo (Table 3B), KG-1. The class given is cell-based. As to conditions: Homo sapiens, KG-1, Cell Titer-Glo.
The subject of test [6] is OCI-AML-3. Kind of test: Long term proliferation, Cell Titer-Glo (Table 3B), OCI-AML-3. Format: cell-based. As to conditions: Homo sapiens, OCI-AML-3, Cell Titer-Glo.
Test [7] deals with MV4-11. Kind of test: Long term proliferation, InCell (Table 3C), MV4-11. The following applies: Homo sapiens, MV4-11, InCell. Format: cell-based. As to the method: as §12, §13, §14, §15, §16
The test system of test [8] is MOLM-13. Description: Long term proliferation, Cell Titer-Glo (Table 3B), MOLM-13. Format: cell-based. As to conditions: Homo sapiens, MOLM-13, Cell Titer-Glo.
The mark [9] stands for this setting: Homo sapiens, MOLM-13, 96 h, MOLM-13 (MLL-AF9), T4 (Day 4), read-out: IC50 T4 (Day 4).
[10] abbreviates: Homo sapiens, MOLM-13, MOLM-13 (MLL-AF9), T7, read-out: IC50 T7.
The mark [11] stands for this setting: Homo sapiens, MOLM-13, MOLM-13 (MLL-AF9), T11, read-out: IC50 T11.
Where [12] appears, read: Homo sapiens, MOLM-13, MOLM-13 (MLL-AF9), T14, read-out: IC50 T14.
Setting [13] is: MOLM-13 (MLL-AF9), T4 (Day 4), read-out: IC50 T4 (Day 4).
The mark [14] stands for this setting: HL-60, T4 (Day 4), read-out: IC50 T4 (Day 4).
Where [15] appears, read: Homo sapiens, HL-60, 96 h, HL-60, T4 (Day 4), read-out: IC50 T4 (Day 4).
The mark [16] stands for this setting: Homo sapiens, HL-60, HL-60, T7, read-out: IC50 T7.
[17] abbreviates: Homo sapiens, HL-60, HL-60, T11, read-out: IC50 T11.
[18] abbreviates: Homo sapiens, HL-60, HL-60, T14, read-out: IC50 T14.
Where [19] appears, read: 96 h, Day 4, read-out: Day 4 IC50.
The mark [20] stands for this setting: 264 h, Day 11, read-out: Day 11 IC50.
The mark [21] stands for this setting: 168 h, Day 7, read-out: Day 7 IC50.
[22] abbreviates: 336 h, Day 14, read-out: Day 14 IC50.

Like-named read-outs stand apart in the source and are kept apart here. Some results are limits rather than exact numbers.

Sequence of menin (O00255 whole entry, species assumed): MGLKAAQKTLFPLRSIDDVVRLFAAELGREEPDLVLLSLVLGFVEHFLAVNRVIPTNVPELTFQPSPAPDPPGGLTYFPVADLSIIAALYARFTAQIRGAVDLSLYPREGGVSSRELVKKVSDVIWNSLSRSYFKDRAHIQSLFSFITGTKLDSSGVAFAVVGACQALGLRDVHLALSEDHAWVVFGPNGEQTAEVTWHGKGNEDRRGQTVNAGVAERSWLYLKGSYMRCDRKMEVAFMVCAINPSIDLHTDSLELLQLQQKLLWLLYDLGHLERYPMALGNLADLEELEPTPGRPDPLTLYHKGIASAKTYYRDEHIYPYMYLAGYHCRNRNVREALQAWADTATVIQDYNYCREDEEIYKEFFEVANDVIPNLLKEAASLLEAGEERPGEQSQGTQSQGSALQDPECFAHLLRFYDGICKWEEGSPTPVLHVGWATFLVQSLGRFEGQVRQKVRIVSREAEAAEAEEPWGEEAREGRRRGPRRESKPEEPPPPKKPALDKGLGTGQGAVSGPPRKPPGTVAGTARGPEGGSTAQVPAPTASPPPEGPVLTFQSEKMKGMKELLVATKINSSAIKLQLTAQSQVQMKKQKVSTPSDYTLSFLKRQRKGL

Take `Cn1nc(-c2cccnc2)cc1CC(=O)Nc1ccc(-c2cc3c(N4CCOCC4)ncnc3[nH]2)cc1` [Compound 11, 2-[1-methyl-3-(pyridin-3-yl)-1H-pyrazol-5-yl]-N-{4-[4-(morpholin-4-yl)-7H-pyrrolo[2,3-d]pyrimidin-6-yl]phenyl}acetamide]: the concentration for half-maximal inhibition (IC50) is 660 nM in test [1] (setting [9]); 513 nM in test [1] (setting [10]); 320 nM in test [1] (setting [11]); 420 nM in test [1] (setting [12]); 661 nM in test [1] (setting [13]); 692 nM in test [2] (setting [14]). For the same compound, the half-maximal inhibitory concentration (IC50) in test [2] (HL-60, T7, read-out: IC50 T7) is 389 nM; in test [2] (setting [15]) it was 690 nM; in test [2] (setting [16]), 390 nM; in test [2] (setting [17]) it was 480 nM; in test [2] (setting [18]), 470 nM. Also, the “inhibition of cell viability (in words)” value in test [1] and in test [2] was “fully inhibited cell viability” in each case.

With `O=C(Cc1cc(-c2cccnc2)n[nH]1)Nc1ccc(-c2nc3c(N4CCOCC4)ncnc3[nH]2)cc1` [Compound 12, N-{4-[6-(morpholin-4-yl)-9H-purin-8-yl]phenyl}-2-[3-(pyridin-3-yl)-1H-pyrazol-5-yl]acetamide], the IC50 is greater than 5000 nM in test [1] (setting [9]); 5750 nM in test [1] (setting [10]); 562 nM in test [1] (setting [11]); greater than 5000 nM in test [1] (setting [12]); greater than 10000 nM in test [1] (setting [13]); greater than 10000 nM in test [2] (setting [14]). For the same compound, the concentration for half-maximal inhibition (IC50) in test [2] (HL-60, T7, read-out: IC50 T7) is greater than 10000 nM; in test [2] (setting [15]), greater than 5000 nM; in test [2] (setting [16]) it was greater than 5000 nM; in test [2] (setting [17]), greater than 5000 nM; in test [2] (setting [18]) it was greater than 5000 nM. Besides, the results for the “inhibition of cell viability (in words)” value in test [1] and in test [2] were “partial effect” and “No activity”, respectively. Besides, binding in test [3] was put at a Kd of 500 ± 200 nM.

On to `O=C(Nc1ccc(-c2cc3c(N4CCOCC4)ncnc3[nH]2)cc1)Nc1cc(-c2cccnc2)n[nH]1` [Compound 9, 1-{4-[4-(morpholin-4-yl)-7H-pyrrolo[2,3-d]pyrimidin-6-yl]phenyl}-3-[3-(pyridin-3-yl)-1H-pyrazol-5-yl]urea], for which the IC50 in test [4] (setting [19]) was 520 nM; in test [4] (setting [20]), 340 nM; in test [5] (setting [19]), greater than 5000 nM; in test [5] (setting [21]), 4790 nM; in test [5] (setting [20]) it was 1700 nM; in test [5] (setting [22]) it was 1230 nM. The IC50 in test [6] (setting [19]) was 870 nM; in test [6] (setting [21]), 710 nM; in test [6] (setting [20]), 650 nM; in test [6] (setting [22]), 720 nM; in test [7] (setting [19]) it was 500 nM; in test [7] (setting [20]), 430 nM. In addition, the IC50 in test [8] (setting [19]) amounted to 410 nM; in test [8] (setting [21]), 240 nM; in test [8] (setting [20]) it was 240 nM; in test [8] (setting [22]), 480 nM.

A word on the IC50: it is the concentration at which inhibition is half-maximal. By Kd is commonly meant the concentration at which binding is half-saturated.
